In PMC10447463, “Data-mining unveils structure–property–activity correlation of viral infectivity enhancing self-assembling peptides” (Nature Communications, 2023):
Read-outs that look alike come from different tables or passages of the source.

Assays:
[1] = assay type: physicochemical; settings: for ThT Cat. / ThT-Fluorescence (categorical): ThT-active if fluorescence at least twice the control
Procedure, shortened: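 Preformed peptide fibrils (1 mg/mL) mixed with 50 µM ThT in PBS, 15 min at RT, fluorescence ex 440/em 488 nm versus PBS blank, triplicates. Zeta potential: peptides at 1 mg/mL in PBS pH 7.4, aged 1 d at RT, diluted in 1 mM KCl, Smoluchowski from electrophoretic mobility.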

[2] = Zeta-potential measurement; assay type: physicochemical; settings: for Zeta-pot. / mV: zeta potential of peptide, Fig S15 source data; for Zeta pot. / mV: 1 mg/mL in PBS pH 7.4 from 10 mg/mL DMSO stock, 1 d RT, 60 µL diluted in 600 µL 1 mM KCl, Zetasizer Nano ZS, Smoluchowski, mean of triplicate
Procedure, shortened: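 In this measurement, peptides aggregated for a day at RT in phosphate-buffered saline (pH 7.4, 1 mg/mL) are diluted into 1 mM potassium chloride, and the electrophoretic mobility is translated into zeta potential by Smoluchowski's relation.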

[3] = ThT fluorescence relative to blank (42.1851851851852 a.u.)
[4] = ThT fluorescence relative to blank, blank = 42.1851851851852

Row | Substance | Zeta category ( +1 = if > 4 mV;-1 = if < -4 mV; 0 = -4mV to 4 mV) [2] | Zeta-pot. / mV [2] [mV] | ThT Cat. / ThT-Fluorescence (categorical) [1] | Zeta pot. / mV [2] [mV] | other results
1 | CEFEFQF [KB12] | -1 (-1 = if < -4 mV) | -13.7 | – | – | Tht rel to blank (42.1851851851852) [1, 3]: 2.788; Zeta Pot. / mV ([2]; mean, Std in separate column): -24.5 mV
2 | CKFKFPF | – | – | 0 (ThT-inactive (N-Fold <2)) | -1.053 | Zeta-Potential / mV ([2]; mean, Figure 6C): -1.053 mV
3 | CKIKIQIII [AR0 / F19] | 1 (+1 = if > 4 mV) | 16.2 | – | – | Tht category (> 1.5 to blank = +) ([1]; category 1/0): 1 (ThT. Cat is 1, if Rel. ThT >2); Tht rel to blank (42.1851851851852) ([1]; relative to blank 42.1851851851852 a.u.): 4.14; Zeta Pot. / mV ([2]; mean, Std in separate column): 16.2 mV
4 | CKIKIQIRGD [psis21] | – | 7.157 | – | – | Tht category (> 1.5 to blank = +) ([1]; FigS26): 0 (Tht category (> 1.5 to blank = +))
5 | CKIKIWIW | – | – | 1 (ThT. Cat is 1, if Rel. ThT >2) | – | Zeta-Potential / mV ([2]; mean, Figure 6C): 19.13 mV
6 | CKIWIQIY | – | – | 1 (ThT. Cat is 1, if Rel. ThT >2) | – | Zeta-Potential / mV ([2]; mean, Figure 6C): 4.537 mV
7 | CRFRFHFH | – | – | 0 (ThT-inactive (N-Fold <2)) | – | Zeta-Potential / mV ([2]; mean, Figure 6C): 19.6 mV
8 | CRLRVGVS | – | – | 0 (ThT-inactive (N-Fold <2)) | 10.53 | Zeta-Potential / mV ([2]; mean, Figure 6C): 10.53 mV
9 | CRLSLSLS | – | – | 0 (ThT-inactive (N-Fold <2)) | 8.977 | Zeta-Potential / mV ([2]; mean, Figure 6C): 8.977 mV
10 | EIEIQINM [TM95 / (TM75)] | -1 (-1 = if < -4 mV) | -23.33 | – | – | Tht rel to blank (42.1851851851852) [1, 3]: 1.473; Zeta Pot. / mV ([2]; mean, Std in separate column): -23.33 mV
11 | EIEIQINMWQ [VH8] | -1 (-1 = if < -4 mV) | -19.13 | – | – | Tht rel to blank (42.1851851851852) [1, 3]: 4.145; Zeta Pot. / mV ([2]; mean, Std in separate column): -19.13 mV
12 | GYVIIK [reference compound] | – | – | 0 (ThT-inactive (N-Fold <2)) | 9.9 | Zeta-Potential / mV ([2]; mean, Figure 7B): 9.88 mV
13 | HHHHKAKAKAKAWWWW [TM8] | 1 (+1 = if > 4 mV) | 17.4 | – | – | Tht rel to blank (42.1851851851852) [1, 4]: 3.672; Tht category (> 1.5 to blank = +) ([1]; category 1/0): 1 (ThT. Cat is 1, if Rel. ThT >2); Zeta Pot. / mV [2]: 17.4 mV
14 | HHHHKAKAKAKAYYYY [TM10] | 1 (+1 = if > 4 mV) | 7.03 | – | – | Tht rel to blank (42.1851851851852) [1, 4]: 1.39; Tht category (> 1.5 to blank = +) ([1]; category 1/0): 0 (ThT-inactive (N-Fold <2)); Zeta Pot. / mV [2]: 7.03 mV
15 | HHHHKIKIQINMYYYY [TM16] | 1 (+1 = if > 4 mV) | 7.807 | – | – | Tht rel to blank (42.1851851851852) [1, 4]: 12.17; Tht category (> 1.5 to blank = +) ([1]; category 1/0): 1 (ThT. Cat is 1, if Rel. ThT >2); Zeta Pot. / mV [2]: 7.807 mV
16 | HIHIQIC [CN12] | 0 (0 = -4mV to 4 mV) | -3.687 | – | – | Tht rel to blank (42.1851851851852) [1, 4]: 12.46; Tht category (> 1.5 to blank = +) ([1]; category 1/0): 1 (ThT. Cat is 1, if Rel. ThT >2); Zeta Pot. / mV [2]: -3.687 mV
17 | HLHLPLL [CN14] | -1 (-1 = if < -4 mV) | -9.053 | – | – | Tht rel to blank (42.1851851851852) [1, 4]: 1.069; Tht category (> 1.5 to blank = +) ([1]; category 1/0): 0 (ThT-inactive (N-Fold <2)); Zeta Pot. / mV [2]: -9.053 mV
18 | IFQINS [reference compound] | – | – | 1 (ThT. Cat is 1, if Rel. ThT >2) | -11.0 | Zeta-Potential / mV ([2]; mean, Figure 7B): -10.98 mV
19 | IIIK [reference compound] | – | – | 0 (ThT-inactive (N-Fold <2)) | -3.8 | Zeta-Potential / mV ([2]; mean, Figure 7B): -3.82 mV
20 | IIIQGK [reference compound] | – | – | 0 (ThT-inactive (N-Fold <2)) | -7.6 | Zeta-Potential / mV ([2]; mean, Figure 7B): -7.56 mV
21 | IKFLSVN [reference compound] | – | – | 0 (ThT-inactive (N-Fold <2)) | 5.9 | Zeta-Potential / mV ([2]; mean, Figure 7B): 5.9 mV
22 | RGDSGGGGGGKIKIQIC [TM114 / RC17] | – | 16.7 | – | – | –
